This is an account of results in publication PMC11521309, “A novel 4-aminoquinoline chemotype with multistage antimalarial activity and lack of cross-resistance with PfCRT and PfMDR1 mutants” (PLOS Pathogens, 2024).

The test system of assay [1] is P. falciparum 7G8^C350R. Set-up: key to Phenotype, 7G8^C350R: S: sensitive; R: resistant. The conditions noted are these: cited from earlier work.
Assay [2] deals with P. falciparum NF10^NF. Set-up: method as in ref 1 Veiga et al. 2016. The conditions noted are these: means ± SEM, N 6; ref 1 Veiga et al. 2016; read-out: IC50 NF10NF; cited from earlier work.
Assay [3] concerns P. falciparum Dd2^Dd2. Set-up: key to Phenotype, Dd2^Dd2: S: sensitive; R: resistant. As to conditions: cited from earlier work.
A further assay concerns P. falciparum FCB. The conditions noted are these: read-out: IC50 FCB; means ± SEM, N 4; ref 2 Sidhu et al. 2006; cited from earlier work.
Assay [4] concerns pool of barcoded P. falciparum lines (Dd2 and 3D7 backgrounds). The assay can be described thus: Resistome growth assay, pool of 51 barcoded lines. The conditions noted are these: 3 × IC50 constant, 14 days. In kind it is cell-based, Plasmodium falciparum. How it is done: The resistome growth assay employs a parasite pool consisting of 51 barcoded lines including both Dd2 and 3D7 genetic backgrounds, with wild-type lines for both (S3 Table). Most lines used were derived from in vitro resistance selection experiments, with others having been CRISPR edited. All lines were barcoded via CRISPR editing of a 101bp barcode cassette into the non-essential pfpare locus (PF3D7_0709700). Parasites were cultured in RPMI-1640 medium supplemented with HEPES (5.94 g/L), NaHCO3 (2.1 g/L), glutamax (1×), hypoxanthine (50 mg/L), gentamycin ([…]), and AlbumaxII (5 g/L) at a […]. Parasite growth was monitored over 14 days by flow cytometry (Cytoflex, Beckman Coulter) by staining with 1× SYBR Green and 0.2 μM MitoTracker Deep Red. Parasitemia adjustments were made to maintain a healthy range of <5% parasitemia. Parasite cultures were harvested at day 14 and lysed by saponin (0.05%), with pellets washed twice with PBS. Barcodes were PCR amplified using 5 μL of parasite pellet and sequenced by Illumina amplicon sequencing.

The next assay concerns P. falciparum NF10^YF. Description: ABS susceptibility, pfmdr1-modified line. In kind it is cell-based. The conditions noted are these: Plasmodium falciparum. The procedure:
(§1) P. falciparum ABS parasites were cultured at 3% hematocrit in human O^+ RBCs in RPMI-1640 media supplemented with 25 mM HEPES, 50 mg/L hypoxanthine, 2 mM L-glutamine, 0.21% sodium bicarbonate, 0.5% (w/v) AlbuMAXII (Invitrogen) and 10 μg/mL gentamycin. Culture flasks were kept in modular incubator chambers (Billups-Rothenberg) in a 5% O2, 5% CO2, and 90% N2 atmosphere at 37°C. Synchronized ring-stage parasites were obtained by two consecutive rounds of treatment with 5% D-sorbitol in 48-hour intervals. […] This was done by exposing cultures at 1% hematocrit and 0.3% parasitemia in 96-well plates in the presence of drugs in a two-fold 10 or 12-point serial dilution in duplicate along with drug-free controls. After a 72-hour incubation, parasite survival was assessed by flow cytometry on an iQue flow cytometer (Sartorius) using SYBR Green and MitoTracker Deep Red FM (Life Technologies) as nuclear stain and vital dye, respectively. Parasite survival was determined as a percentage relative to drug-free control. IC50 values were interpolated from log concentration versus response curves in Prism 9 (GraphPad Prism Software Inc.).

Another assay relates to P. falciparum FCB^KD1. Description: ABS susceptibility, pfmdr1-modified line. The class given is cell-based. The conditions noted are these: Plasmodium falciparum. The procedure:
as §1

Assay [5] concerns P. falciparum NF10^NF. Description: ABS susceptibility, pfmdr1-modified line. In kind it is cell-based. The conditions noted are these: Plasmodium falciparum. How it is done: as §1
Assay [6] relates to P. falciparum Dd2-Polδ parent culture. The assay can be described thus: ABS susceptibility after resistance selection, parental line. The class given is cell-based, Plasmodium falciparum. The conditions noted are these: for % Parasite survival: Dd2 Pol D parent, rep 1-5. How it is done:
as §1
Resistance to LDT-623 was assessed using single-step in vitro resistance selection protocols. […] Dd2-Pol δ is a hypermutable line with two point mutations in DNA polymerase δ that compromise its proofreading activity Cultures were monitored daily by thin blood smears until live parasites were no longer detectable. Drug-containing media was changed daily until parasites cleared, and every other day thereafter. Cultures were passaged once weekly by reducing the volume by 25% and replacing 1/3 of RBCs. Recrudescence monitoring was carried out twice a week by thin blood smears for 60 days. In the event of recrudescence, parasite susceptibility to LDT-623 was tested as described above.

A further assay concerns P. falciparum Dd2^3D7. The assay can be described thus: ABS susceptibility, pfcrt-edited line. In kind it is cell-based. As to conditions: Plasmodium falciparum. How it is done: as §1
In the next assay the test system is P. falciparum Dd2^F145I. The assay can be described thus: ABS susceptibility, pfcrt-edited line. The class given is cell-based. As to conditions: Plasmodium falciparum. How it is done: as §1
Another assay concerns P. falciparum Dd2^G353V. The assay can be described thus: ABS susceptibility, pfcrt-edited line. In kind it is cell-based. As to conditions: Plasmodium falciparum. How it is done: as §1
The subject of a further assay is P. falciparum Dd2^T93S. Description: ABS susceptibility, pfcrt-edited line. The conditions noted are these: Plasmodium falciparum. The class given is cell-based. How it is done: as §1
The test system of another assay is P. falciparum Dd2^M343L. The assay can be described thus: ABS susceptibility, pfcrt-edited line. The conditions noted are these: Plasmodium falciparum. The class given is cell-based. The procedure: as §1
The subject of assay [7] is P. falciparum 7G8^C350R. The assay can be described thus: ABS susceptibility, pfcrt-edited line. In kind it is cell-based. As to conditions: Plasmodium falciparum. The procedure:
as §1

In another assay the test system is P. falciparum Dd2^I218F. The assay can be described thus: ABS susceptibility, pfcrt-edited line. The conditions noted are these: Plasmodium falciparum. The class given is cell-based. The procedure:
as §1

The next assay has as its system P. falciparum 7G8^7G8. The assay can be described thus: ABS susceptibility, pfcrt-edited line. In kind it is cell-based. As to conditions: Plasmodium falciparum. How it is done:
as §1

Another assay relates to P. falciparum Dd2^H97Y. The assay can be described thus: ABS susceptibility, pfcrt-edited line. In kind it is cell-based. As to conditions: Plasmodium falciparum. The procedure:
as §1

Assay [8] has as its system P. falciparum Dd2^Dd2. Description: ABS susceptibility, pfcrt-edited line. The class given is cell-based. The conditions noted are these: Plasmodium falciparum. The procedure:
as §1

The subject of a further assay is P. falciparum 7G8^F145I. The assay can be described thus: ABS susceptibility, pfcrt-edited line. In kind it is cell-based. The conditions noted are these: Plasmodium falciparum. The procedure: as §1

Structures are written as SMILES. Values joined by “and” are separate entries in the source; they are usually repeats but may differ in a detail not shown here. Equal entries are not always repeated. Where two headings read alike, the source gives them in different places.

What is called IC50 is the concentration that inhibits the measured activity by half. The term IC90 denotes the concentration at which the effect reaches the 90% level.

As for `CCN(CC)CCCC(C)Nc1ccnc2cc(Cl)ccc12` (centres unmarked) [CQ, chloroquine], the IC50 in the assay with P. falciparum 7G8^C350R [1] (7G8C350R, mean ± SEM, ref 3 (Kim et al., 2019)) was 6.9 ± 0.3 nM; in the assay on P. falciparum NF10^NF [2], 216 ± 15.3 nM; in the assay with P. falciparum Dd2^Dd2 [3] (Dd2Dd2, mean ± SEM, ref 1 (Ross et al., 2018)) it was 156 ± 9.3 nM; with P. falciparum FCB, 217 ± 34.6 nM. For the same compound, the “Phenotype, 7G8^C350R” value with P. falciparum 7G8^C350R [1] (ref [19],[20],[51]) was “S”. Moreover, the IC90 in the assay on P. falciparum Dd2^Dd2 [3] (Dd2Dd2, mean ± SEM, ref 2 (Dhingra et al., 2019)) was 214 ± 7.4 nM. The “Phenotype, Dd2^Dd2” value in the assay on P. falciparum Dd2^Dd2 [3] (ref [19],[20],[51]) is listed as “R”.

On to `COc1cc2nccc(Nc3cccc(Oc4ccccc4)c3)c2cc1OC` [LDT-623], for which the “growth recovery of barcoded pool” value in assay [4] is “no growth recovery”. For the same compound, the IC50 in the assay with P. falciparum NF10^YF (read-out: IC50 NF10YF) came out at 360.2 ± 1.9 nM; with P. falciparum FCB^KD1 (read-out: IC50 FCBKD1), 488 ± 12 nM; with P. falciparum NF10^NF [5] (read-out: IC50 NF10NF) it was 400 ± 28.2 nM; with P. falciparum Dd2^3D7, 232 ± 10.5 nM; in the assay on P. falciparum Dd2^F145I, 541 ± 83.7 nM; with P. falciparum Dd2^G353V, 456 ± 9.6 nM. Besides, the IC50 amounted to 227 ± 9 nM with P. falciparum Dd2^T93S; 416 ± 50 nM with P. falciparum Dd2^M343L; 576 ± 49.4 nM with P. falciparum 7G8^C350R [7]; 435 ± 20.1 nM in the assay on P. falciparum Dd2^I218F; 579 ± 67.5 nM in the assay on P. falciparum 7G8^7G8; 416 ± 59.6 nM in the assay with P. falciparum Dd2^H97Y. In addition, the IC50 in the assay with P. falciparum Dd2^Dd2 [8] was found to be 452 ± 31 nM; with P. falciparum 7G8^F145I, 439 ± 22.7 nM. Moreover, the IC90 was 562.9 ± 2.8 nM with P. falciparum NF10^YF (read-out: IC90 NF10YF); 7.65 ± 1.12 µM with P. falciparum FCB^KD1 (read-out: IC90 FCBKD1); 580 ± 13 nM with P. falciparum NF10^NF [5] (read-out: IC90 NF10NF); 455 ± 51.1 nM in the assay on P. falciparum Dd2^3D7; 3.79 ± 1.73 µM in the assay on P. falciparum Dd2^F145I; 6.51 ± 1.54 µM in the assay with P. falciparum Dd2^G353V. Further, the 90% effect concentration (IC90) was found to be 429 ± 41.7 nM in the assay on P. falciparum Dd2^T93S; 6.86 ± 0.333 µM in the assay on P. falciparum Dd2^M343L; 4.05 ± 3.08 µM in the assay with P. falciparum 7G8^C350R [7]; 3.98 ± 1.68 µM with P. falciparum Dd2^I218F; 980 ± 133 nM in the assay with P. falciparum 7G8^7G8; 5.27 ± 0.0992 µM in the assay with P. falciparum Dd2^H97Y. The IC90 in the assay with P. falciparum Dd2^Dd2 [8] was 6.33 ± 1.66 µM; in the assay with P. falciparum 7G8^F145I, 6.57 ± 3.25 µM. Moreover, the “mean AUC of survival curve” value in [6] (Dd2-Polδ parent culture) amounted to 35.4. In addition, the “% Parasite survival” value in [6] (0.09 uM) was 76.35% and 85.80% and 91.78% and 97.25%; in assay [6] (0.19 uM), 89.20% and 72.57% and 70.57% and 79.41% and 83.99%; in assay [6] (25 uM), 0.00% and 0.89%; in assay [6] (50 uM) it was 0.00% and 1.83%.
